Results: patent US20250090475A1, “DRUG-LOADED AMINO ACID BASED POLY (ESTERUREA)FILMS FOR CONTROLLED LOCAL RELEASE OF NON-OPIOID ANALGESIC COMPOUNDS” (MERK SHARP & DOHME CORP., priority 2020, published 2025)

What was measured:
[1] = In vitro etoricoxib release from PEU films, USP Apparatus 7, PBS; assay type: physicochemical; conditions: about 6 mg in USP 7, PBS, n=3
[2] = 90 mg etoricoxib dosed patients in comparison to diclofenac at 150 mg; oral; cited from earlier work
[3] = Etoricoxib solubility in the release media; assay type: physicochemical; conditions: used in Higuchi equation
Procedure: D=(slope/A)^2/2CCs • Where the slope is the amount of drug released at time t divided by the square root of time, A is the area of the film, C is the initial drug concentration (or the drug-load in the polymer), CS is the drug solubility in the media (0.5 mg/mL) and D is the diffusivity constant. This constant not only indicates the mobility of the drug from the film into the media, but also can be used to calculate for the time of total release using the maximum amount of drug within the film (Table 11).

## Cc1ccc(-c2ncc(Cl)cc2-c2ccc(S(C)(=O)=O)cc2)cn1 [etoricoxib]
[1]
  time at which free drug release reached a plateau: ~1 days
[2]
  gastrointestinal events: decrease in gastrointestinal events
  risk of edema and hypertension: dose-dependent increased risk
[3]
  drug solubility in the media (CS): 500 µg/mL
